One assay concerns AMPK. In words: Measurement of AMPK activity by Western blot in C2C12 cells. It is filed as cell-based. Further details: key to AMPK activity (degree of phosphorylation of serine-79 and threonine-172): fold increase in threonine-172 phosphorylation; AMPK activity (degree of phosphorylation of serine-79): unit not given here. The settings on record: 10 μM for 50 minutes; for AMPK activity (degree of phosphorylation of serine-79 and threonine-172): no superscript: Western blot of serine-79 and threonine-172 phosphorylation; for AMPK activity (degree of phosphorylation of serine-79): footnote a: Western blot of serine-79 phosphorylation; for AMPK activity (class: degree of phosphorylation of threonine-172): strong/mild/weak. The procedure, abridged:
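Differentiated C2C12 cells were exposed to test material at 10 μM for 50 minutes, then lysed. AMPK activity was taken from Western blots of Thr-172 phosphorylation and acetyl CoA carboxylase Ser-79 phosphorylation, with ERK as loading reference. Thr-172 rise was graded strong (≥3-fold), mild (1-3-fold) or weak (<1-fold).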
For orientation: Immunoblotting shows a protein as a band on a membrane.

The subject of the next assay is C2C12 muscle cells. In words: Analysis of glucose absorption (2-deoxyglucose) in differentiated C2C12 muscle cells. It is filed as cell-based. Particulars: test materials 10 μM, times relative to control group. The procedure, abridged: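 Differentiated C2C12 myotubes (6 days in 1% serum) held 3 h in KRB with 5 mM glucose, then given test material at 10 μM. After 30 min, 0.2 μCi 2-deoxyglucose added for 20 min; uptake measured by radioactive counting of NaOH lysates.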

Molecules are shown by their SMILES.

For `COc1ccc(CNc2nc(C(OC)c3ccccc3)nc3ccccc23)cc1` (stereo not drawn) [Compound 362, (4-Methoxybenzyl)-[2-(methoxyphenylmethyl)-quinazolino-4-yl]-amine], the “AMPK activity (degree of phosphorylation of serine-79 and threonine-172)” value in the assay on AMPK amounted to 2.6. The same compound had a Glucose absorption in the assay with C2C12 muscle cells of 1.2.

For the compound `CCOc1cc2ncnc(NCc3ccc(Cl)cc3)c2cc1OCC` [Compound 18, (4-Chlorobenzyl)-(6,7-diethoxyquinazolino-4-yl)-amine], the “AMPK activity (degree of phosphorylation of serine-79)” value in the assay with AMPK is 6.0^a. Further, the Glucose absorption in the assay with C2C12 muscle cells is listed as 1.0.

Regarding `COc1ccc(CNc2nc(N3CCCC3)nc3ccccc23)c(OC)c1` [Compound 291, (2,4-Dimethoxybenzyl)-(2-pyrrolidino-1-ylquinazolino-4-yl)-amine], the “AMPK activity (degree of phosphorylation of serine-79 and threonine-172)” value in the assay on AMPK is on record as 1.5. The Glucose absorption in the assay with C2C12 muscle cells was 0.8.

Turning to `COc1cc(CNc2nc(N3CCOCC3)nc3ccccc23)cc(OC)c1` [Compound 305, (3,5-Dimethoxybenzyl)-(2-morpholino-4-ylquinazolino-4-yl)-amine], the “AMPK activity (degree of phosphorylation of serine-79 and threonine-172)” value with AMPK is 2.1. The compound further registered a Glucose absorption with C2C12 muscle cells of 0.8.

Regarding `CCSc1nc(NCc2c(F)cccc2Cl)c2ccccc2n1` [Compound 49, (2-Chloro-6-fluorobenzyl)-(2-ethylsulfanylquinazolino-4-yl)-amine], the “AMPK activity (class: degree of phosphorylation of threonine-172)” value in the assay on AMPK is on record as “mild (“mild” means that the degree of phosphorylation of threonine-172 increased by 1 to 3 times)”. In the assay with C2C12 muscle cells, this compound showed a Glucose absorption of 1.8.

For `COc1ccc(CNc2nc(C3CC3)nc3ccccc23)cc1OC` [Compound 388, (2-Cyclopropylquinazolino-4-yl)-(3,4-dimethoxybenzyl)-amine], the “AMPK activity (degree of phosphorylation of serine-79 and threonine-172)” value in the assay on AMPK turned out to be 2.8. The same compound displayed a Glucose absorption in the assay on C2C12 muscle cells of 1.2.

For `CCOc1cc2ncnc(NCCc3ccccn3)c2cc1OCC` [Compound 17, (6,7-Diethoxyquinazolino-4-yl)-(2-pyridino-2-ylethyl)-amine], the “AMPK activity (degree of phosphorylation of serine-79)” value with AMPK is on record as 2.2^a. Also, the Glucose absorption in the assay on C2C12 muscle cells turned out to be 1.2.

Turning to `CCSc1nc(NCc2ccccc2)c2ccccc2n1` [Compound 22, Benzyl-(2-Ethylsulfanylquinazolino-4-yl)-amine], the “AMPK activity (class: degree of phosphorylation of threonine-172)” value in the assay with AMPK is “strong (“strong” means that the degree of phosphorylation of threonine-172 increased by 3 times or more)”. For the same compound, the Glucose absorption in the assay with C2C12 muscle cells is reported as 2.6.

As to `COc1cccc(CNc2ncnc3ccccc23)c1` [Compound 405, (3-Methoxybenzyl)-quinazolino-4-ylamine], in the assay on AMPK, the “AMPK activity (degree of phosphorylation of serine-79 and threonine-172)” value is recorded as 2.7. Further, the Glucose absorption in the assay with C2C12 muscle cells is given as 2.2.

With `COc1cc(CNc2ncnc3ccccc23)cc(OC)c1` [Compound 409, (3,5-Dimethoxybenzyl)-quinazolino-4-ylamine], the “AMPK activity (degree of phosphorylation of serine-79 and threonine-172)” value with AMPK worked out at 3.3. Besides, in the assay on C2C12 muscle cells, the Glucose absorption is given as 1.6.

For `Clc1cccc(CNc2nc(-c3ccccc3)nc3ccccc23)c1` [Compound 145, (3-Chlorobenzyl)-(2-phenylquinazolino-4-yl)-amine], in the assay with AMPK, the “AMPK activity (degree of phosphorylation of serine-79 and threonine-172)” value is 2.7; the “AMPK activity (class: degree of phosphorylation of threonine-172)” value is “strong (“strong” means that the degree of phosphorylation of threonine-172 increased by 3 times or more)”. In the assay on C2C12 muscle cells, this compound gave a Glucose absorption of 2.2.

On to `CC(C)c1nc(NCCc2cccc(F)c2)c2ccccc2n1` [Compound 184, [2-(3-Fluorophenyl)-ethyl]-(2-isopropylquinazolino-4-yl)-amine], for which, in the assay on AMPK, the “AMPK activity (degree of phosphorylation of serine-79 and threonine-172)” value is listed as 1.9; the “AMPK activity (class: degree of phosphorylation of threonine-172)” value is reported as “strong (“strong” means that the degree of phosphorylation of threonine-172 increased by 3 times or more)”. Besides, the Glucose absorption in the assay on C2C12 muscle cells came to 3.2.

Consider `COc1ccc(CNc2nc(N3CCCC3)nc3ccccc23)cc1OC` [Compound 299, (3,4-Dimethoxybenzyl)-(2-pyrrolidino-1-ylquinazolino-4-yl)-amine], for which, in the assay with AMPK, the “AMPK activity (degree of phosphorylation of serine-79 and threonine-172)” value is recorded as 0.6. In addition, in the assay on C2C12 muscle cells, the Glucose absorption is 0.8.

Take `COc1cc(OC)c(CNc2nc(C3CC3)nc3ccccc23)c(OC)c1` [Compound 392, (2-Cyclopropylquinazolino-4-yl)-(2,4,6-trimethoxybenzyl)-amine]: the “AMPK activity (degree of phosphorylation of serine-79 and threonine-172)” value in the assay on AMPK is reported as 2.7. In addition, the Glucose absorption with C2C12 muscle cells is on record as 1.1.

On to `CCSc1nc(NCc2ccc3c(c2)OCO3)c2ccccc2n1` [Compound 37, Benzo[1,3]dioxol-5-ylmethyl-(2-ethylsulfanylquinazolino-4-yl)-amine], for which, in the assay on AMPK, the “AMPK activity (class: degree of phosphorylation of threonine-172)” value is given as “strong (“strong” means that the degree of phosphorylation of threonine-172 increased by 3 times or more)”. For the same compound, the Glucose absorption with C2C12 muscle cells worked out at 2.2.

Take `c1ccc(-c2nc(NCc3ccc4c(c3)OCO4)c3ccccc3n2)nc1` [Compound 230, Benzo[1,3]dioxol-5-ylmethyl-(2-pyridino-2-ylquinazolino-4-yl)-amine]: in the assay on AMPK, the “AMPK activity (degree of phosphorylation of serine-79 and threonine-172)” value is 4.9; the “AMPK activity (class: degree of phosphorylation of threonine-172)” value is recorded as “strong (“strong” means that the degree of phosphorylation of threonine-172 increased by 3 times or more)”. In the assay with C2C12 muscle cells, the Glucose absorption amounted to 1.7.

For the compound `COc1ccc(CNc2nc(-c3cccs3)nc3ccccc23)cc1OC` [Compound 355, (3,4-Dimethoxybenzyl)-(2-thiopenyl-2-ylquinazolino-4-yl)-amine], the “AMPK activity (degree of phosphorylation of serine-79 and threonine-172)” value with AMPK is recorded as 1.1. The Glucose absorption with C2C12 muscle cells is recorded as 1.2.

As to `C=CCNc1ncnc2cc(OCC)c(OCC)cc12` [Compound 16, Allyl-(6,7-diethoxyquinazolino-4-yl)-amine], the “AMPK activity (degree of phosphorylation of serine-79)” value in the assay with AMPK is on record as 3.1^a. The same compound came in with a Glucose absorption with C2C12 muscle cells of 1.3.

Regarding `CCSc1nc(NCc2cccc(OC)c2)c2ccccc2n1` [Compound 24, (2-Ethylsulfanylquinazolino-4-yl)-(3-methoxybenzyl)-amine], the “AMPK activity (class: degree of phosphorylation of threonine-172)” value in the assay with AMPK is on record as “strong (“strong” means that the degree of phosphorylation of threonine-172 increased by 3 times or more)”. The compound further displayed a Glucose absorption with C2C12 muscle cells of 2.8.

On to `Cc1nc(NCCc2cccc(F)c2)c2ccccc2n1` [Compound 172, [2-(3-Fluorophenyl)-ethyl]-(2-methylquinazolino-4-yl)-amine], for which, in the assay with AMPK, the “AMPK activity (degree of phosphorylation of serine-79 and threonine-172)” value is 4.4; the “AMPK activity (class: degree of phosphorylation of threonine-172)” value is listed as “strong (“strong” means that the degree of phosphorylation of threonine-172 increased by 3 times or more)”. Further, in the assay with C2C12 muscle cells, the Glucose absorption worked out at 2.6.

For the compound `COc1cccc(CNc2nc(C)nc3ccccc23)c1` [Compound 164, (3-Methoxybenzyl)-(2-methylquinazolino-4-yl)-amine], in the assay on AMPK, the “AMPK activity (degree of phosphorylation of serine-79 and threonine-172)” value is on record as 1.6; the “AMPK activity (class: degree of phosphorylation of threonine-172)” value is reported as “mild (“mild” means that the degree of phosphorylation of threonine-172 increased by 1 to 3 times)”. The Glucose absorption in the assay on C2C12 muscle cells came out at 3.4.

On to `COc1cc(CNc2nc(Cc3ccccc3)nc3ccccc23)cc(OC)c1` [Compound 330, (2-Benzylquinazolino-4-yl)-(3,5-dimethoxybenzyl)-amine], for which, in the assay with AMPK, the “AMPK activity (degree of phosphorylation of serine-79 and threonine-172)” value stood at 1.7. Further, the Glucose absorption in the assay on C2C12 muscle cells is 1.2.

In the case of `COc1ccc(OC)c(CNc2nc(C(C)C)nc3ccccc23)c1` [Compound 326, (2,5-Dimethoxybenzyl)-(2-isopropylquinazolino-4-yl)-amine], the “AMPK activity (degree of phosphorylation of serine-79 and threonine-172)” value in the assay with AMPK is recorded as 2.9. Besides, the Glucose absorption with C2C12 muscle cells is given as 1.2.

As to `CC(C)c1nc(NCc2ccc3c(c2)OCO3)c2ccccc2n1` [Compound 182, Benzo[1,3]dioxol-5-ylmethyl-(2-isopropylquinazolino-4-yl)-amine], in the assay on AMPK, the “AMPK activity (degree of phosphorylation of serine-79 and threonine-172)” value came out at 2.9; the “AMPK activity (class: degree of phosphorylation of threonine-172)” value is “strong (“strong” means that the degree of phosphorylation of threonine-172 increased by 3 times or more)”. In addition, in the assay on C2C12 muscle cells, the Glucose absorption was determined as 3.1.

For `Brc1ccc(CNc2nc(-c3ccccc3)nc3ccccc23)cc1` [Compound 148, (4-Bromobenzyl)-(2-phenylquinazolino-4-yl)-amine], in the assay with AMPK, the “AMPK activity (degree of phosphorylation of serine-79 and threonine-172)” value came to 1.7; the “AMPK activity (class: degree of phosphorylation of threonine-172)” value is recorded as “strong (“strong” means that the degree of phosphorylation of threonine-172 increased by 3 times or more)”. This compound came in with a Glucose absorption with C2C12 muscle cells of 2.1.

On to `COc1cc(OC)c(CNc2nc(C(OC)c3ccccc3)nc3ccccc23)c(OC)c1` (stereo not drawn) [Compound 370, [2-(Methoxyphenylmethyl)-quinazolino-4-yl]-(2,4,6-trimethoxybenzyl)-amine], for which the “AMPK activity (degree of phosphorylation of serine-79 and threonine-172)” value in the assay with AMPK turned out to be 7.7. The Glucose absorption in the assay on C2C12 muscle cells worked out at 1.3.

For the compound `CCSc1nc(NCCc2cccc(F)c2)c2ccccc2n1` [Compound 10, (2-Ethylsulfanylquinazolino-4-yl)-[2-(3-fluorophenyl)-ethyl]-amine], in the assay with AMPK, the “AMPK activity (degree of phosphorylation of serine-79)” value is 5.3^a. This compound also yielded a Glucose absorption with C2C12 muscle cells of 1.5.

With `COc1ccc(CNc2nc(C(C)c3ccccc3)nc3ccccc23)c(OC)c1` (stereo not drawn) [Compound 379, (2,4-Dimethoxybenzyl)-[2-(1-phenylethyl)-quinazolino-4-yl]-amine], the “AMPK activity (degree of phosphorylation of serine-79 and threonine-172)” value in the assay on AMPK is on record as 6.1. The Glucose absorption in the assay with C2C12 muscle cells is reported as 1.1.

Source of the values: patent US20080207614A1, “QUINAZOLINE DERIVATIVES FOR THE TREATMENT AND PREVENTION OF DIABETES AND OBESITY” (SK CHEMICALS CO., LTD., priority 2004, published 2008).
